US8710001B2, “PEGylated, extended insulins” (Novo Nordisk A/S, priority 2006, dated 2014)

target: human insulin receptor, A-isoform (without exon 11) (Homo sapiens, UniProt P06213); assay: Insulin receptor binding, SPA (Scintillation Proximity Assay) microtiterplate antibody capture assay; settings: affinity relative to human insulin; purified recombinant human insulin receptor; A14Tyr[125I]-human insulin tracer; 16 hours incubation
Experimental: The affinity of the insulin derivatives of this invention for the human insulin receptor is determined by a SPA assay (Scintillation Proximity Assay) microtiterplate antibody capture assay. SPA-PVT antibody-binding beads, anti-mouse reagent (Amersham Biosciences, Cat No. PRNQ0017) are mixed with 25 ml of binding buffer (100 mM HEPES pH 7.8; 100 mM sodium chloride, 10 mM MgSO4, 0.025% Tween-20). Reagent mix for a single Packard Optiplate (Packard No. 6005190) is composed of 2.4 μl of a 1:5000 diluted purified recombinant human insulin receptor (either with or without exon 11), an amount of a stock solution of A14Tyr[^125I]-human insulin corresponding to 5000 cpm per 100 μl of reagent mix, 12 μl of a 1:1000 dilution of F12 antibody, 3 ml of SPA-beads and binding buffer to a total of 12 ml. A total of 100 μl reagent mix is then added to each well in the Packard Optiplate and a dilution series of the insulin derivative is made in the Optiplate from appropriate samples. The samples are then incubated for 16 hours while gently shaken. The phases are the then separated by centrifugation for 1 min and the plates counted in a Topcounter. The binding data were fitted using the nonlinear regression algorithm in the GraphPad Prism 2.01 (GraphPad Software, San Diego, Calif.).

Chain of human insulin receptor, A-isoform (without exon 11) (P06213 28-746 isoform P06213-2 limits assumed): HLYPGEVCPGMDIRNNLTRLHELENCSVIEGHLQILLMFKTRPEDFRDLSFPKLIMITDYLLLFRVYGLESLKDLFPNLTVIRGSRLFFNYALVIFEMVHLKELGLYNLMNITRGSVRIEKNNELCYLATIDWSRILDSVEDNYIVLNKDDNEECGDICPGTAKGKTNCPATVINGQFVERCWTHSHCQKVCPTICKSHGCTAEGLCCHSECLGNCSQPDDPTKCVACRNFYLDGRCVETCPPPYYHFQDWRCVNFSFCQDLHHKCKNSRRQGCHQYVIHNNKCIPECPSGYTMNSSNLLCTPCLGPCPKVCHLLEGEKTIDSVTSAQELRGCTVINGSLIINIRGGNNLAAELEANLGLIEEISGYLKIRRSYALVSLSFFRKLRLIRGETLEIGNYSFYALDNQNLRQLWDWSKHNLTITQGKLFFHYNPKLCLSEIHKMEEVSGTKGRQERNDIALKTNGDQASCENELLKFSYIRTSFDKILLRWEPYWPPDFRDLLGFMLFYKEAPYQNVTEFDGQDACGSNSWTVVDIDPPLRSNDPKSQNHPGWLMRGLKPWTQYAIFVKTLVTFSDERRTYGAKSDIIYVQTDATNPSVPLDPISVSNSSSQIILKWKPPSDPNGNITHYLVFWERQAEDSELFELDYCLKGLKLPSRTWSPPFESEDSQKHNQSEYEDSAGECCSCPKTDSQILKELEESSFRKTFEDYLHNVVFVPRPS
Chain of human insulin receptor, A-isoform (without exon 11) (P06213 763-1382 partner limits assumed): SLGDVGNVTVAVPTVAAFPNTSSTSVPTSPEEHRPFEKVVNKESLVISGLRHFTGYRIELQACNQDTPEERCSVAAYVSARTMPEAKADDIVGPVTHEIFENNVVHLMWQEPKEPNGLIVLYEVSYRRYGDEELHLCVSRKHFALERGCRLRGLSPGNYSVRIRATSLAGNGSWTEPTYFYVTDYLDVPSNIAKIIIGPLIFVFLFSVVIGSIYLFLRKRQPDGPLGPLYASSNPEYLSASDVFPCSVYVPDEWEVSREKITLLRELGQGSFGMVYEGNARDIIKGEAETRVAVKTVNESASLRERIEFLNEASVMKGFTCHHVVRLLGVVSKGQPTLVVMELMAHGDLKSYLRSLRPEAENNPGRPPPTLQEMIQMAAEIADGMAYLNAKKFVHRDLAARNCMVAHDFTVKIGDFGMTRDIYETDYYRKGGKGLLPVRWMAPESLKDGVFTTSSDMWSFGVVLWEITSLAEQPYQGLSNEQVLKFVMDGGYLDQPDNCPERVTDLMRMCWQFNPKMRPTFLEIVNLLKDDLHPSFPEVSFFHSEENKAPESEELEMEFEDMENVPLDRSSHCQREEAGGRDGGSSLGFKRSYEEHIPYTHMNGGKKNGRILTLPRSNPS

Substance | Insulin receptor binding, A-isoform (without exon 11) Relative to human insulin [%]
A14E, A22K(N^+mPEG2000-Propionyl), B25H, B29R, desB30 Human Insulin [Example 16] | 15
A14E, A22K(N^ε(mdPEG12)3-dPEG4-yl), B25H, B29R, desB30 Human Insulin [Example 17] | 19
A14E, A22K(N^ε(mdPEG12)3-dPEG4-yl-dPEG12-yl), B25H, B29R, desB30 Human Insulin [Example 18] | 16
A22G, A23G, A24G, A25K(N^εmPEG750-Propionyl), B29R, desB30 Human Insulin [Example 7] | 44
A22G, A23K(N^εmPEG2000-Propionyl), B29R, desB30 Human Insulin [Example 8] | 58
A22K(N^ε(mdPEG12)3-dPEG4-yl), B29R, desB30 Human Insulin [Example 6] | 120
A22K(N^ε(mdPEG12)3-dPEG4-yl-dPEG12-yl), B29R, desB30 Human Insulin [Example 19] | 106
A22K(N^ε-mPEG2000-Propionyl), B29R, desB30 Human Insulin [Example 1] | 90
A22K(N^εmPEG2000-Propionyl), B29R, desB30 Human Insulin [Example 2] | 90
B29Q, B31K(N^ε(mPEG2000-Propionyl)) Human Insulin [Example 22] | 14
